The source of these data is ChEMBL document CHEMBL4354877, “MymA Bioactivated Thioalkylbenzoxazole Prodrug Family Active against Mycobacterium tuberculosis” (J Med Chem, 2020).

Data set [1] can be described thus: Intrinsic clearance in mouse liver microsomes at 0.5 uM incubated for 45 mins in presence of NADPH by LC-MS/MS analysis. In kind it is ADME, Microsome. As to conditions: 0.75 h.
Data set [2] is described as follows: Intrinsic clearance in human liver microsomes at 0.5 uM incubated for 45 mins in presence of NADPH by LC-MS/MS analysis. In kind it is ADME, Microsome. Particulars: 0.75 h. (Liver microsomes are vesicles of endoplasmic reticulum, rich in cytochrome P450 enzymes.)
The subject of data set [3] is Mycobacterium tuberculosis. As to the kind of experiment: Antimycobacterial activity against Mycobacterium tuberculosis H37Rv intracellular forms infected in human THP1 cells assessed as inhibition of microbial growth incubated for 5 days by luciferase reporter gene assay. The class given is functional. Particulars: THP-1, 120 h.

As usually defined, the IC90 is the point of the concentration-response curve where the effect stands at 90%. For `O=C(CCSc1nc2cc(F)ccc2o1)N1CCS(=O)(=O)CC1`, the CLH in data set [1] was 1.5 mL/min/g; in data set [2] it was 0.4 mL/min/g. Moreover, the IC90 in data set [3] was above 50 µM.
Taken in the same sequence, the figures for `CSc1nc2cc(Cl)ccc2o1` were above 46.1 mL/min/g, 19 mL/min/g and above 50 µM.
Taken in the same sequence, the figures for `O=C(CCCSc1nc2cc(Cl)ccc2o1)N1CCCC1` were 124.8 mL/min/g, 3.4 mL/min/g and 2.3 µM.
Turning to `O=C(CCSc1ncc(-c2ccccc2)o1)N1CCCC1`, the figures for the CLH in data set [1] and in data set [2] were 176.6 mL/min/g and 11 mL/min/g, respectively. In addition, the IC90 in data set [3] is above 50 µM.
Taken in the same sequence, the figures for `O=C(CCSc1nc2cc(Cl)ccc2o1)N1CCCCC1` were 127.7 mL/min/g, 10.7 mL/min/g and 2.5 µM.
Taken in the same sequence, the figures for `CN1CCN(C(=O)CCSc2nc3cc(Cl)ccc3o2)CC1` were 41.5 mL/min/g, 1.5 mL/min/g and 17.2 µM.
The matching figures for `CS(=O)(=O)N1CCN(C(=O)CCSc2nc3cc(Cl)ccc3o2)CC1`: 1.4 mL/min/g, 0.6 mL/min/g and 20.4 µM.
`O=C(CCCc1nc2cc(Cl)ccc2o1)N1CCCC1`: the figures for the CLH in data set [1] and in data set [2] were 115.2 mL/min/g and 1.4 mL/min/g, respectively. Further, in data set [3], the IC90 is above 50 µM.
The matching figures for `Clc1ccc2oc(SCCCN3CCCC3)nc2c1`: 10.4 mL/min/g, 1.9 mL/min/g and 42.6 µM.
Taken in the same sequence, the figures for `O=C(CSCc1nc2cc(Cl)ccc2o1)N1CCCC1` were 71.8 mL/min/g, 1.5 mL/min/g and above 50 µM.
Taken in the same sequence, the figures for `O=C(CCSc1nc2ncccc2o1)N1CCCC1` were 18.6 mL/min/g, 0.7 mL/min/g and above 50 µM.
Turning to `O=C(CCSc1nc2cnccc2o1)N1CCCC1`, the figures for the CLH in data set [1] and in data set [2] were 3.1 mL/min/g and 0.6 mL/min/g, respectively. The IC90 in data set [3] came out at 35.1 µM.
In the case of `O=C(CCSc1nc2c(Cl)cccc2o1)N1CCCC1`, the CLH in data set [1] stood at 97.9 mL/min/g; in data set [2], 15.8 mL/min/g. The IC90 in data set [3] turned out to be 24.3 µM.
Taken in the same sequence, the figures for `CCN(CC)C(=O)CCSc1nc2cc(Cl)ccc2o1` were 107.5 mL/min/g, 5.9 mL/min/g and 3.9 µM.
The matching figures for `Cc1nc(SCCC(=O)N2CCCC2)oc1C`: 3.9 mL/min/g, below 0.4 mL/min/g and above 50 µM.
Take `O=C(CCNc1nc2cc(Cl)ccc2o1)N1CCCC1`: the CLH turned out to be 81.1 mL/min/g in data set [1] and 2.3 mL/min/g in data set [2]. For the same compound, in data set [3], the IC90 was above 50 µM.
In the case of `CC1CCCN1C(=O)CCSc1nc2cc(Cl)ccc2o1` (racemic), the CLH is 98 mL/min/g in data set [1] and 8.5 mL/min/g in data set [2]. The IC90 in data set [3] worked out at 25.5 µM.
As for `CC(CC(=O)N1CCCC1)Sc1nc2cc(Cl)ccc2o1` (stereo unspecified), the results for the CLH in data set [1] and in data set [2] were 165.1 mL/min/g and 8.6 mL/min/g, respectively. In addition, in data set [3], the concentration for an effect of 90% (IC90) amounted to 4 µM.
Consider `O=C(CCSc1nc2cc(Cl)ccc2s1)N1CCCC1`, for which the CLH was determined as 67 mL/min/g in data set [1] and 15 mL/min/g in data set [2]. Also, the IC90 in data set [3] is 15.6 µM.
Taken in the same sequence, the figures for `O=C(CCSc1nc2ccncc2o1)N1CCCC1` were 5.7 mL/min/g, 0.9 mL/min/g and above 50 µM.
Taken in the same sequence, the figures for `O=C(CCSc1nc2cc(F)ccc2o1)N1CCCC1` were 115.2 mL/min/g, 5.2 mL/min/g and 1.6 µM.
Taken in the same sequence, the figures for `O=C1CCCN1CCCSc1nc2cc(Cl)ccc2o1` were 51 mL/min/g, 4.8 mL/min/g and 6.5 µM.
